Each structure is given as a SMILES string. Active and inactive are the calls of the source. No cut-off for these calls is given here.

The subject of test [1] is Streptococcus pneumoniae. Briefly: Antibacterial activity against tnpR/tnpA positive tetracycline resistant Streptococcus pneumoniae clinical isolate expressing Tn3872 carrying erm(B) and tet(M) gene at 1000 ug by disk diffusion method. Format: functional, organism-based. In general terms: In agar diffusion tests the substance spreads into inoculated agar from a disc or well.

Test [2] relates to Streptococcus pneumoniae. Briefly: Antibacterial activity against tetracycline resistant Streptococcus pneumoniae clinical isolate expressing Tn6002 carrying erm(B) and tet(M) gene at 1000 ug by disk diffusion method. Type of test: functional, organism-based.
Test [3] concerns Streptococcus pneumoniae. Briefly: Antibacterial activity against aphA-3 positive tetracycline resistant Streptococcus pneumoniae clinical isolate expressing Tn6003 carrying erm(B)and tet(M) gene at 1000 ug by disk diffusion method. Format: functional, organism-based.
In test [4] the test system is Streptococcus pneumoniae. Put plainly: Antibacterial activity against tetracycline resistant Streptococcus pneumoniae clinical isolate expressing erm(B) and tet(M) gene by agar dilution CLSI method. Format: functional. (In agar dilution the substance is mixed into plates at graded concentrations.)

Take `NC[C@H]1O[C@H](O[C@H]2[C@H](O)[C@@H](O[C@H]3O[C@H](CO)[C@@H](O)[C@H](N)[C@H]3O)[C@H](N)C[C@@H]2N)[C@H](O)[C@@H](O)[C@@H]1O`: the outcome in test [1] and in test [2] was Active. Also, the outcome in test [3] was inactive. Broadly, the MIC is the lowest concentration found to suppress growth. Low values mean inhibition by little substance, high ones a need for much substance. Molecule `CN(C)[C@@H]1C(O)=C(C(N)=O)C(=O)[C@@]2(O)C(O)=C3C(=O)c4c(O)cccc4[C@@](C)(O)[C@H]3C[C@@H]12` [TETRACYCLINE] returned an MIC in test [4] of over 32 µg/mL.

`CC[C@H]1OC(=O)[C@H](C)[C@@H](O[C@H]2C[C@@](C)(OC)[C@@H](O)[C@H](C)O2)[C@H](C)[C@@H](O[C@@H]2O[C@H](C)C[C@H](N(C)C)[C@H]2O)[C@](C)(O)C[C@@H](C)C(=O)[C@H](C)[C@@H](O)[C@]1(C)O` [ERYTHROMYCIN] had an MIC in test [4] of over 128 µg/mL.

For the origin of these results see ChEMBL document CHEMBL1255326, “erm(B)-carrying elements in tetracycline-resistant pneumococci and correspondence between Tn1545 and Tn6003” (2008).
